# Measurements as given in US6706528B2, “Fluorescent magnesium indicators” (The United States of America as represented by the …, priority 2000, dated 2004).
# Assays:
# [1] = UV absorption spectrum of the free indicator; assay type: physicochemical; details: buffer pH 7.2
# Description: The emission and excitation fluorescence spectra of the compounds of the present invention (e.g., (1a-3a), (9a), (11a-13a), (15a), and (18a-24a)) were recorded using a 0.5 to 1.0 μM solution of the chelator buffered at pH 7.2. The solutions also contained 120 mM KCl and 20 mM NaCl to mimic the ionic strength of the intracellular medium. These solutions were titrated with stock solutions of MgCl2 containing an equimolar concentration of the 4-oxo-4H-quinolizine carboxylic acids to cancel out dilution effects during the titration. After each titration step, the emission and excitation fluorescence spectra were recorded. The apparent dissociation constants of indicators for Mg^2+ were determined from the fluorescence spectra as originally described by Grynkiewicz et al. (Grynkiewicz et al., J. Biol. Chem. 260: 3440-3450 [1985]).
# In the following experiments, tetrahydrofuran (THF) was dried and distilled over sodium/benzophenone (Nalbenzophenone) prior to use. Dimethylformamide (DMF) was dried over molecular sieves (4 Å). Ethyl acetate, hexane, diethyl ether and all commercially available chemicals were used as received. After extractive work-up, the combined organic phases were dried on magnesium sulfate. Water used in the spectrophotometric and fluorescence experiments was filtered through a hydro PICOPURE® 2 filter. Thin layer chromatography was carried out on Sigma-Aldrich TLC plates (silica gel on polyester). Chromatographic purifications were done by flash chromatography using Merck Silica Gel, grade 9385, 230-400 mesh, 60 Å. Melting points were measured on a Fisher-Johns melting point apparatus and are shown uncorrected herein. ^1H-NMR spectra and ^13C-NMR spectra were recorded on a Nicolet NT 360 MHz NMR Spectrometer and a Varian UNITY plus 400 MHz NMR Spectrometer. Chemical shifts are reported in parts per million (δ), using tetramethylsilane (TMS) as the internal standard. The signals are expressed as an s (singlet), d (doublet), t (triplet), q (quartet), m (multiplet), or br (broad). High cresolution mass spectra were obtained from the Washington University Resources for Biomedical and Bio-organic Mass Spectrometry on samples which were chromatographically pure. Compounds (9a) and (21a) were analyzed by FABMS using NBA Li matrix. UV absorption spectra were recorded with a Bechman DU 650 Spectrophotometer using Fisherbrand™ semimicro quartz cells (Fisher Scientific). Fluorescence measurements were recorded with an Aminco-Bowman® Series 2 Spectrometer using quartz fluorimeter cuvets from Sigma. pH measurements were done using a Mettler Toledo MP 255 pH meter.
# The buffered solutions used in fluorescence/Mg^2+ titration experiments contained 120 mM KCl, 20 mM NaCl, and 15 mM TRIS buffer, and were brought to pH=7.2 with concentrated HCl. A stock solution of 2 mg of the indicator in 5 ml buffer was prepared. To record a UV spectrum, the stock solutions were diluted 40 times (25 μl in 975 μl). For the fluorescence titration experiments, 25 μl of the stock solution was diluted 100 times with 2475 μl buffer. Emission fluorescence and excitation fluorescence spectra were recorded using the appropriate excitation wavelength derived from the UV spectrum of the free indicator. To 2475 μl of a MgCl2 solution (100 mM, 250 mM or 500 mM (2a)), 25 μl of the stock solution of the indicator was added, to cancel out dilution during the titration. To the solution of the free indicator, increasing amounts of the MgCl2/indicator solution were added. After each titration step, fluorescence emission and fluorescence excitation spectra were recorded.
# [2] = fluorescent response to increasing Ca2+ concentrations; assay type: binding; details: for fluorescent response to increasing Ca^2+ concentrations: Ca^2+ up to 100 mM
# [3] = fluorescence/pH titration to determine pKa; assay type: physicochemical; details: 10 mM MOPS buffer, from pH 4.29, read-out: pKa of the carboxylate group on the ring system
# Description: However, it is not intended that the present invention be so limited nor is it necessary to understand the mechanism in order to practice the present invention. Thus, the indicators are present in the deprotonated form and available for complexation at physiological pH.
# To determine the pKa of 1-bromo-8-(1,2-dicarboxyethyl)-4-oxo-4H-quinolizine-3-carboxylic acid (21a), 250 μl of the stock solution of 1-bromo-8-(1,2-dicarboxyethyl)-4-oxo-4H-quinolizine-3-carboxylic acid was added to 25 ml of 10 mM MOPS, pH 4.29. The fluorescence emission spectrum was recorded. A 0.1 M NaOH solution containing an equal concentration of 1-bromo-8-(1,2-dicarboxyethyl)-4-oxo-4H-quinolizine-3-carboxylic acid (21a), was added dropwise. After each pH increase of 0.2, the emission spectrum was recorded. At pH 6.31, no change of the fluorescence emission was observed.
Compound,"A, absorption maximum of the free indicator [1] [nm]",melting point [°C],other results
"8-[3-(N,N-di(carboxymethyl)phenoxy]-4-oxo-4H-quinolizine-3-carboxylic acid [Compound 18a]",370,,
"1-[N,N-di(carboxymethyl)]-4-oxo-4H-quinolizine-3-carboxylic acid [Compound 11a]",410,,
"O=C(O)Cc1ccn2c(=O)c(C(=O)O)ccc2c1 [Compound 19a, 8-(carboxymethyl)-4-oxo-4H-quinolizine-3-carboxylic acid]",380,,
"COc1ccc(-c2ccn3c(=O)c(C(=O)O)ccc3c2)cc1 [Compound 22a, 8-(4-methoxyphenyl)-4-oxo-4H-quinolizine-3-carboxylic acid]",406,> 250,
"O=C(O)C(=Cc1cc(C(=O)O)c(=O)n2ccccc12)C(=O)O [Compound 12a, 1-(2,2-dicarboxyvinyl)-4-oxo-4H-quinolizine-3-carboxylic acid]",400,,
"O=C(O)c1ccc2ccccn2c1=O [Compound 1a, 4-oxo-4H-quinolizine-3-carboxylic acid]",385,,effect of Ca^2+ on the fluorescence emission ([2]; Ca^2+ levels in the nanomolar to submicromolar range): do not affect the fluorescence emission
"O=C(O)c1ccc2ccc3ccccc3n2c1=O [Compound 3a, [6,7]benzo-4-oxo-4H-quinolizine-3-carboxylic acid]",410,,
"O=C(O)CC(C(=O)O)c1ccn2c(=O)c(C(=O)O)ccc2c1 (stereo not drawn) [Compound 20a, 8-(1,2-dicarboxyethyl)-4-oxo-4H-quinolizine-3-carboxylic acid]",390,,
"O=C(O)CC(C(=O)O)c1ccn2c(=O)c(C(=O)O)cc(Br)c2c1 (stereo not drawn) [Compound 21a, 1-bromo-8-(1,2-dicarboxyethyl)-4-oxo-4H-quinolizine-3-carboxylic acid]",407,> 250,fluorescent response to increasing Ca^2+ concentrations [2]: no fluorescent response; pKa [3]: 5.6
"O=C(O)c1cc(CC(C(=O)O)C(=O)O)c2ccccn2c1=O [Compound 13a, 1-(2,2-dicarboxyethyl)-4-oxo-4H-quinolizine-3-carboxylic acid]",395,,
"Nc1ccn2c(=O)c(C(=O)O)ccc2c1 [Compound 15a, 8-amino-4-oxo-4H-quinolizine-3-carboxylic acid]",385,,
"O=C(O)c1ccc2cc(-c3cc4ccccc4o3)ccn2c1=O [Compound 24a, 8-benzo[b]furyl-4-oxo-4H-quinolizine-3-carboxylic acid]",440,,
"O=C(O)c1ccc2cc(Cl)ccn2c1=O [Compound 2a, 4-oxo-8-chloro-4H-quinolizine-3-carboxylic acid]",391,> 250,
"O=C(O)c1cc(Br)c2ccccn2c1=O [Compound 9a, 1-bromo-4-oxo-4H-quinolizine-3-carboxylic acid]",403,> 250,fluorescent response to increasing Ca^2+ concentrations [2]: no fluorescent response
"O=C(O)c1ccc2cc(-c3cccc4ccccc34)ccn2c1=O [Compound 23a, 8-(naphth-1-yl)-4-oxo-4H-quinolizine-3-carboxylic acid]",386,245 to 247,
